Here are results for 44 compounds from patent publication US11253499B2, “Compounds” (priority 2017, dated 2022).

Where only a bound is given, the exact number is not on record here.

The subject of this experiment is M. tuberculosis W4-E1-GFP (Mutant). The format is cell-based, Mycobacterium tuberculosis. Conditions: read-out: EC50_Mutant.
On to `O=C(CCC(F)(F)F)N1CC(c2ccc(F)cc2)C1` [Example 1, 4,4,4-trifluoro-1-[3-(4-fluorophenyl)azetidin-1-yl]butan-1-one], for which the EC50 was < 50 nM.

Consider `O=C(CCC(F)(F)F)N1CC(c2cccc(C(F)(F)F)c2)C1` [Example 2, 4,4,4-trifluoro-1-[3-[3-(trifluoromethyl)phenyl]azetidin-1-yl]butan-1-one], for which the EC50 was 50 to 250 nM.

`O=C(CCCC(F)(F)F)N1CC(c2ccc(F)cc2)C1` [Example 3, 5,5,5-trifluoro-1-[3-(4-fluorophenyl)azetidin-1-yl]pentan-1-one]: the EC50 lay in the range of 50 to 250 nM.

As to `O=C(CCC(F)(F)F)N1CC(C2CC2)C1` [Example 4, 1-(3-cyclopropylazetidin-1-yl)-4,4,4-trifluoro-butan-1-one], the EC50 was in the range of 500 to 1000 nM.

With `O=C(CCC(F)(F)F)N1CC(C2CCCC2)C1` [Example 5, 1-(3-cyclopentylazetidin-1-yl)-4,4,4-trifluoro-butan-1-one], the EC50 lay within 50 to 250 nM.

As to `O=C(CCC(F)(F)F)N1CC(C2CCCCC2)C1` [Example 6, 1-(3-cyclohexylazetidin-1-yl)-4,4,4-trifluoro-butan-1-one], the EC50 is < 50 nM.

With `O=C(CCC(F)(F)F)N1CC(c2cc(C(F)(F)F)ccn2)C1` [Example 7, 4,4,4-trifluoro-1-[3-[4-(trifluoromethyl)-2-pyridyl]azetidin-1-yl]butan-1-one], the EC50 is 250 to 500 nM.

Consider `O=C(CCC(F)(F)F)N1CC(c2ccc(C(F)(F)F)cn2)C1` [Example 8, 4,4,4-trifluoro-1-[3-[5-(trifluoromethyl)-2-pyridyl]azetidin-1-yl]butan-1-one], for which the EC50 was in the range of 500 to 1000 nM.

In the case of `O=C(CCC(F)(F)F)N1CC(c2ccc(F)cn2)C1` [Example 9, 4,4,4-trifluoro-1-[3-(5-fluoro-2-pyridyl)azetidin-1-yl]butan-1-one], the EC50 was 500 to 1000 nM.

`O=C(CCC(F)(F)F)N1CC(c2ncc(F)cc2F)C1` [Example 10, 1-[3-(3,5-difluoro-2-pyridyl)azetidin-1-yl]-4,4,4-trifluoro-butan-1-one]: the EC50 is 250 to 500 nM.

`O=C(CCC(F)(F)F)N1CC(c2cc(Cl)ccn2)C1` [Example 11, 1-[3-(4-chloro-2-pyridyl)azetidin-1-yl]-4,4,4-trifluoro-butan-1-one]: the EC50 was in the range of 50 to 250 nM.

Turning to `O=C(CCC(F)(F)F)N1CC(c2ccnc(C(F)(F)F)c2)C1` [Example 12, 4,4,4-trifluoro-1-[3-[2-(trifluoromethyl)-4-pyridyl]azetidin-1-yl]butan-1-one], the EC50 was 1000 to 10000 nM.

On to `O=C(CCC(F)(F)F)N1CC(c2ccc(Cl)cc2)C1` [Example 13, 1-[3-(4-chlorophenyl)azetidin-1-yl]-4,4,4-trifluoro-butan-1-one], for which the EC50 is 50 to 250 nM.

With `O=C(CCC(F)(F)F)N1CC(c2ccc(OC(F)(F)F)cc2)C1` [Example 14, 4,4,4-trifluoro-1-[3-[4-(trifluoromethoxy)phenyl]azetidin-1-yl]butan-1-one], the EC50 fell in the range of 1000 to 10000 nM.

For `O=C(CCC(F)(F)F)N1CC(c2cccc(OC(F)(F)F)c2)C1` [Example 15, 4,4,4-trifluoro-1-[3-[3-(trifluoromethoxy)phenyl]azetidin-1-yl]butan-1-one], the EC50 lay in the range of 50 to 250 nM.

As to `O=C(CCC(F)(F)F)N1CC(c2ccc(C(F)(F)F)cc2)C1` [Example 16], the EC50 fell in the range of 250 to 500 nM.

In the case of `O=C(CCC(F)(F)F)N1CC(c2cccc(Cl)c2)C1` [Example 17, 1-[3-(3-chlorophenyl)azetidin-1-yl]-4,4,4-trifluoro-butan-1-one], the EC50 is < 50 nM.

With `O=C(CCC(F)(F)F)N1CC(c2ccc(F)cc2F)C1` [Example 18, 1-[3-(2,4-difluorophenyl)azetidin-1-yl]-4,4,4-trifluoro-butan-1-one], the EC50 was < 50 nM.

Turning to `O=C(CCC(F)(F)F)N1CC(c2ccc(Cl)nc2)C1` [Example 19], the EC50 lay in the range of 1000 to 10000 nM.

On to `O=C(CCC(F)(F)F)N1CC(c2ccc(F)cc2Cl)C1` [Example 20, 1-[3-(2-chloro-4-fluoro-phenyl)azetidin-1-yl]-4,4,4-trifluoro-butan-1-one], for which the EC50 lay within 50 to 250 nM.

As for `O=C(CCC(F)(F)F)N1CC(c2ccc(C(F)(F)F)nc2)C1` [Example 21, 4,4,4-trifluoro-1-[3-[6-(trifluoromethyl)-3-pyridyl]azetidin-1-yl]butan-1-one], the EC50 lay in the range of 1000 to 10000 nM.

As to `COc1ccc(C2CN(C(=O)CCC(F)(F)F)C2)cn1` [Example 22, 4,4,4-trifluoro-1-[3-(6-methoxy-3-pyridyl)azetidin-1-yl]butan-1-one], the EC50 lay within 50 to 250 nM.

With `O=C(CCC(F)(F)F)N1CC(c2cncc(Cl)c2)C1` [Example 23, 1-[3-(5-chloro-3-pyridyl)azetidin-1-yl]-4,4,4-trifluoro-butan-1-one], the EC50 lay within 1000 to 10000 nM.

In the case of `O=C(CCC(F)(F)F)N1CC(c2cncc(C(F)(F)F)c2)C1` [Example 24, 4,4,4-trifluoro-1-[3-[5-(trifluoromethyl)-3-pyridyl]azetidin-1-yl]butan-1-one], the EC50 lay within 1000 to 10000 nM.

Take `O=C(CCC(F)(F)F)N1CC(c2ccc(F)cc2C(F)(F)F)C1` [Example 25, 4,4,4-trifluoro-1-[3-[4-fluoro-2-(trifluoromethyl)phenyl]azetidin-1-yl]butan-1-one]: the EC50 lay within 250 to 500 nM.

Turning to `O=C(CCC(F)(F)F)N1CC(c2cccnc2)C1` [Example 26, 4,4,4-trifluoro-1-[3-(3-pyridyl)azetidin-1-yl]butan-1-one], the EC50 fell in the range of 1000 to 10000 nM.

Consider `O=C(CCC(F)(F)F)N1CC(c2ccc(F)c(F)c2)C1` [Example 27, 1-[3-(3,4-difluorophenyl)azetidin-1-yl]-4,4,4-trifluoro-butan-1-one], for which the EC50 is < 50 nM.

For `Cc1cc(F)ccc1C1CN(C(=O)CCC(F)(F)F)C1` [Example 28, 4,4,4-trifluoro-1-[3-(4-fluoro-2-methyl-phenyl)azetidin-1-yl]butan-1-one], the EC50 fell in the range of 250 to 500 nM.

Turning to `O=C(CCC(F)(F)F)N1CC(c2cccc(F)c2)C1` [Example 29, 4,4,4-trifluoro-1-[3-(3-fluorophenyl)azetidin-1-yl]butan-1-one], the EC50 was in the range of 50 to 250 nM.

For `O=C(CCC(F)(F)F)N1CC(c2ccncc2)C1` [Example 30, 4,4,4-trifluoro-1-[3-(4-pyridyl)azetidin-1-yl]butan-1-one], the EC50 was 1000 to 10000 nM.

For `O=C(CCC(F)(F)F)N1CC(c2ccnc(F)c2)C1` [Example 31, 4,4,4-trifluoro-1-[3-(2-fluoro-4-pyridyl)azetidin-1-yl]butan-1-one], the EC50 is 1000 to 10000 nM.

With `O=C(CCC(F)(F)F)N1CC(c2ccnc(Cl)c2)C1` [Example 32, 1-[3-(2-chloro-4-pyridyl)azetidin-1-yl]-4,4,4-trifluoro-butan-1-one], the EC50 lay within 1000 to 10000 nM.

For the compound `O=C(CCC(F)(F)F)N1CC(c2ccc(F)nc2)C1` [Example 33, 4,4,4-trifluoro-1-[3-(6-fluoro-3-pyridyl)azetidin-1-yl]butan-1-one], the EC50 was 1000 to 10000 nM.

With `O=C(CCC(F)(F)F)N1CC(c2cc(F)c(F)c(F)c2)C1` [Example 34, 4,4,4-trifluoro-1-[3-(3,4,5-trifluorophenyl)azetidin-1-yl]butan-1-one], the EC50 was in the range of 50 to 250 nM.

Take `O=C(CCC(F)(F)F)N1CC(N2CCC(F)(F)CC2)C1` [Example 35, 1-[3-(4,4-difluoro-1-piperidyl)azetidin-1-yl]-4,4,4-trifluoro-butan-1-one]: the EC50 fell in the range of 500 to 1000 nM.

For the compound `CC(C)Oc1ccc(C2CN(C(=O)CCC(F)(F)F)C2)cn1` [Example 36, 4,4,4-trifluoro-1-[3-(6-isopropoxy-3-pyridyl)azetidin-1-yl]butan-1-one], the EC50 was 1000 to 10000 nM.

Regarding `O=C(CCC(F)(F)F)N1CC(c2ccc(OCC(F)(F)F)nc2)C1` [Example 37, 4,4,4-trifluoro-1-[3-[6-(2,2,2-trifluoroethoxy)-3-pyridyl]azetidin-1-yl]butan-1-one], the EC50 lay within 1000 to 10000 nM.

With `O=C(CCC(F)(F)F)N1CC(C2CCOCC2)C1` [Example 38, 4,4,4-trifluoro-1-(3-(tetrahydro-2H-pyran-4-yl)azetidin-1-yl)butan-1-one], the EC50 lay in the range of 1000 to 10000 nM.

In the case of `O=C(CCC(F)(F)F)N1CC(N2CCCCC2)C1` [Example 39, 4,4,4-trifluoro-1-(3-(piperidin-1-yl)azetidin-1-yl)butan-1-one], the EC50 fell in the range of 1000 to 10000 nM.

`O=C(CCC(F)(F)F)N1CC(C2CCC(F)(F)CC2)C1` [Example 40, 1-(3-(4,4-difluorocyclohexyl)azetidin-1-yl)-4,4,4-trifluorobutan-1-one]: the EC50 was in the range of 50 to 250 nM.

With `COC1(c2ccc(F)cc2)CN(C(=O)CCC(F)(F)F)C1` [Example 41, 4,4,4-trifluoro-1-(3-(4-fluorophenyl)-3-methoxyazetidin-1-yl)butan-1-one], the EC50 is 50 to 250 nM.

Take `CC1(c2ccc(F)cc2)CN(C(=O)CCC(F)(F)F)C1` [Example 42, 4,4,4-trifluoro-1-(3-(4-fluorophenyl)-3-methylazetidin-1-yl)butan-1-one]: the EC50 was in the range of 50 to 250 nM.

For `N#Cc1ccc(C2CN(C(=O)CCC(F)(F)F)C2)cc1` [Example 43, 4-(1-(4,4,4-trifluorobutanoyl)azetidin-3-yl)benzonitrile], the EC50 lay within 1000 to 10000 nM.

Turning to `O=C(CCC(F)(F)F)N1CC(F)(c2ccc(F)cc2)C1` [Example 44, 4,4,4-trifluoro-1-(3-fluoro-3-(4-fluorophenyl)azetidin-1-yl)butan-1-one], the EC50 was < 50 nM.
